Consider seven molecules from article PMC7144330, “2-Thiopyrimidine/chalcone hybrids: design, synthesis, ADMET prediction, and anticancer evaluation as STAT3/STAT5a inhibitors” (Journal of Enzyme Inhibition and Medicinal Chemistry, 2020).

Like-named read-outs stand apart in the source and are kept apart here.

Data set [1] deals with STAT3. Also noted: method as in PMID 20067773. The settings on record: breast cancer cells; read-out: EC50, inhibition of STAT3 function; cited from earlier work.
Data set [2] has as its system STAT3. Also noted: method as in PMID 20067773. The conditions noted are these: myeloma cancer cells; read-out: EC50, inhibition of STAT3 function; cited from earlier work.
A further data set concerns human leukaemia cells. Set-up: method as in earlier work. The settings on record: read-out: CC50, cytotoxic activity; cited from earlier work.
A further data set deals with K-562. Briefly: MTT cytotoxic assay, leukaemia K-562 cell line. The conditions noted are these: Homo sapiens, K562, read-out: (IC50 μM)±SD K-562. In kind it is cell-based. The method, then:
(§1) To investigate cytotoxic activity of the final target compounds 9a–r, MTT assay was performed. Three different cell lines were used, leukaemia (K-562), breast (MCF-7) and colon (HT-29) cell lines. Cisplatin and erlotinib were the reference drugs used in this study.
(§2) All target compounds 9a–r were screened against three different cancer cell lines, leukaemia (K-562), breast (MCF-7), and colon (HT-29). MTT assay was used. Both cisplatin and erlotinib were used as the reference drugs. Cytotoxicity results are recorded in Table 1.
Background: Tetrazolium assays rely on reduction of a dye to a coloured formazan, in cell work by metabolically active cells.

The next data set relates to MCF-7. As to the kind of experiment: MTT cytotoxic assay, breast MCF-7 cell line. In kind it is cell-based, human. The settings on record: Homo sapiens, MCF7, read-out: (IC50 μM)±SD MCF-7. Here is the method:
as §1, §2

The next data set concerns HT-29. Briefly: MTT cytotoxic assay, colon HT-29 cell line. In kind it is cell-based. The conditions noted are these: Homo sapiens, read-out: (IC50 μM)±SD HT-29. The method, then:
as §1, §2

In data set [3] the target is T1, STAT3 (Homo sapiens, UniProt P40763).
T1 construct: endogenous in cells; host or cells: K-562 and MCF-7 cells (nuclear extracts)
T1 sequence (P40763 whole entry): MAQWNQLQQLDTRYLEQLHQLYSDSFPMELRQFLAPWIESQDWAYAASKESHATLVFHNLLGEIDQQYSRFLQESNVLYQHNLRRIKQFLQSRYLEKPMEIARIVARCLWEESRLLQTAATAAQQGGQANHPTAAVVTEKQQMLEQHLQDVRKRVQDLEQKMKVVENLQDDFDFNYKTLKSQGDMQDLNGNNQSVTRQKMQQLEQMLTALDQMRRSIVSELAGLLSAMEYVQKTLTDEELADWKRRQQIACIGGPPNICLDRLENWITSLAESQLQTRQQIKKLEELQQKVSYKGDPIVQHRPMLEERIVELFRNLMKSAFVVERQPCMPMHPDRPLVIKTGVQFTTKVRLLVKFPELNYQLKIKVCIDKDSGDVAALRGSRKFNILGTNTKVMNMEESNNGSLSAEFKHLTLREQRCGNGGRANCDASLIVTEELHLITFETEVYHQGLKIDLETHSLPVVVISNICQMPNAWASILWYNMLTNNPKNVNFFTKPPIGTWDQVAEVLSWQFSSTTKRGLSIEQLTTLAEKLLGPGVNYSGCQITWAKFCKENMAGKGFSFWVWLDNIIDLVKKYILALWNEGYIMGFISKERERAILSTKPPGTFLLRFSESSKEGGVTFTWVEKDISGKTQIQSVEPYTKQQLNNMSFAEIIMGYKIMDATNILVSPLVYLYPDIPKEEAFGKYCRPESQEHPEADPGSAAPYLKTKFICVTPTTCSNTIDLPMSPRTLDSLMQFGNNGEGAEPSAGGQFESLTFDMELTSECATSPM
As to the kind of experiment: TransAM STAT3 activation assay on nuclear extracts of treated cells. In kind it is cell-based. The conditions noted are these: 24 h, read-out: Inhibition IC50 (µM) STAT3. The method, then: (§3) Both K-562 and MCF-7 cell lines were seeded overnight in plates, then 10 µM of test compounds (9a and 9r for MCF-7 cells; 9d, 9f, and 9n for K-562 cells) or reference drug pacritinib was added for 24 h. A nuclear extract kit was used to extract nuclear fractions from treated cells using the manufacture’s procedure. STAT3 and STAT5a activations were analysed using the collected nuclear extracts (20 µg) through TransAM STAT3 and STAT5a activation assay guided by the manufacture’s protocol. The obtained results were expressed in the form of mean ± SD. Each experiment was done in triplicate.
(§4) Pacritinib, an inhibitor for both STAT3 and STAT5a[49] was used in this study as a reference drug.

The target in a further data set is T2, STAT5a (Homo sapiens, UniProt P42229).
T2 construct: endogenous in cells; host or cells: K-562 and MCF-7 cells (nuclear extracts)
T2 sequence (P42229 1-794): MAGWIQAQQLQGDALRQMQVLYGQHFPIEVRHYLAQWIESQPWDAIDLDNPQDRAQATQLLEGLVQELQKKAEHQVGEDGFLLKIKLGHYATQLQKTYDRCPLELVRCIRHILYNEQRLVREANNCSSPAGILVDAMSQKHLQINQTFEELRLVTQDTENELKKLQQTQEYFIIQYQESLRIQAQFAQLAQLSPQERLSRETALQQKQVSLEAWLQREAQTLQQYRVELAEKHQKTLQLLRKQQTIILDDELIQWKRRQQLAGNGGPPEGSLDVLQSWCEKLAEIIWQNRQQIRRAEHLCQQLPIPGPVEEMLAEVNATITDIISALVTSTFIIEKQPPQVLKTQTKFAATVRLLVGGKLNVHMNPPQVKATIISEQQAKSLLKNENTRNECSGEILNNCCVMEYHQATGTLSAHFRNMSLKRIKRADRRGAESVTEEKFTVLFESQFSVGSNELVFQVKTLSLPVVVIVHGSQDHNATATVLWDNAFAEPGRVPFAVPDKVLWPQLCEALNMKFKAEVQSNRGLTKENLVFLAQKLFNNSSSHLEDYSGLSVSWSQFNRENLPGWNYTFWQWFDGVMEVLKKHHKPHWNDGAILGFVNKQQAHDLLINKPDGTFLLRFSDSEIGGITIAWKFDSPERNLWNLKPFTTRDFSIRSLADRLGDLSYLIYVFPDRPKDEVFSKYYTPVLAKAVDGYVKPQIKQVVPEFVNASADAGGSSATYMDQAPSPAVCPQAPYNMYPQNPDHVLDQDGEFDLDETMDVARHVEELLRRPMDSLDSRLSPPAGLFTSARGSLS
Briefly: TransAM STAT5a activation assay on nuclear extracts of treated cells. In kind it is cell-based. The conditions noted are these: 24 h, read-out: Inhibition IC50 (µM) STAT5a. Here is the method:
as §3, §4

A further data set in a line: in vitro. The settings on record: human.

`Cc1ccc(S(=O)(=O)N(C)CC(=O)N(Cc2ccc(C3CCCCC3)cc2)c2ccc(C(=O)O)c(O)c2)cc1` [Compound S3I-201.1066]: the EC50 – broadly, the concentration needed to bring the measured effect to its halfway point – in the data set on STAT3 [1] was […]; with STAT3 [2], […].
`Cc1cccc(Nc2ccccc2C(=O)Nc2ccc(C(=O)/C=C/c3ccc(N(C)C)cc3)cc2)c1C` [dimethylamino-derivative of compound X]: the CC50 – broadly, the concentration giving 50% cytotoxicity – in the data set with human leukaemia cells is 2.06 µM.
On to `Cc1cccc(Nc2ccccc2C(=O)Nc2ccc(C(=O)/C=C/c3ccc(Cl)cc3)cc2)c1C` [chloro-derivative of compound X], for which the CC50 in the data set with human leukaemia cells is 2.17 µM.
Turning to `COc1cc(/C=C/C(=O)c2ccc(NC(=O)CSc3nc(-c4ccc(Cl)cc4)cc(-c4ccc(OCCCl)cc4)n3)cc2)cc(OC)c1OC` [Compound 9r], the melting point (usually the temperature of the solid-liquid transition) is 221 to 223 °C. Besides, the IC50 (as a rule, the concentration that gives 50% inhibition) in the data set on K-562 came to 10.7 ± 0.77 µM. Further, the half-maximal inhibitory concentration (IC50) in the data set with MCF-7 stood at 1.37 ± 0.07 µM. Moreover, the IC50 with HT-29 stood at 4.74 ± 0.27 µM. In addition, the IC50 at STAT3 [3] (MCF7 cells) stood at 149 ± 3.81 µM. Further, the IC50 on STAT5a (MCF7 cells) is 63.2 ± 1.57 µM. This molecule also gave a half-maximal inhibitory concentration (IC50) in the data set “in vitro” of 29.2 to 40.1 µM.
For `COc1ccc(-c2cc(-c3ccc([N+](=O)[O-])cc3)nc(SCC(=O)Nc3ccc(C(=O)/C=C/c4cc(OC)c(OC)c(OC)c4)cc3)n2)cc1` [Compound 9f, (ZE)-2-[4-(4-Methoxyphenyl)-6-(4-nitrophenyl)pyrimidin-2-ylthio]-N-{4-[3-(3,4,5-trimethoxyphenyl)acryloyl]phenyl}acetamide], the melting point is 254 to 256 °C. In addition, the half-inhibitory concentration (IC50) with K-562 worked out at 1.37 ± 0.03 µM. Besides, in the data set on MCF-7, the IC50 is 5.77 ± 0.22 µM. Besides, in the data set with HT-29, the IC50 stood at 9.41 ± 0.43 µM. The IC50 on STAT3 [3] (K562 cells) came out at 245 ± 11.1 µM. Further, the IC50 at STAT5a (K562 cells) amounted to 77.7 ± 2.91 µM. Moreover, the concentration for half-maximal inhibition (IC50) in the data set “in vitro” is 29.2 to 40.1 µM.
On to `COc1ccc(/C=C/C(=O)c2ccc(NC(=O)CSc3nc(-c4ccc(Cl)cc4)cc(-c4ccc([N+](=O)[O-])cc4)n3)cc2)cc1OC` [Compound 9n, (ZE)-2-[4-(4-Chlorophenyl)-6-(4-nitrophenyl)pyrimidin-2-ylthio]-N-{4-[3-(3,4-dimethoxyphenyl)acryloyl]phenyl}acetamide], for which the melting point lay within 147 to 149 °C. In the data set on K-562, the half-inhibitory concentration (IC50) turned out to be 1.05 ± 0.02 µM. Also, the IC50 with MCF-7 stood at 17.4 ± 0.75 µM. The IC50 in the data set with HT-29 was 2.1 ± 0.06 µM. Moreover, the IC50 at STAT3 [3] (K562 cells) was 113 ± 3.22 µM. The half-inhibitory concentration (IC50) on STAT5a (K562 cells) is 50.7 ± 1.26 µM. Further, the IC50 in the data set “in vitro” fell in the range of 29.2 to 40.1 µM.
Turning to `COc1ccc(/C=C/C(=O)c2ccc(NC(=O)CSc3nc(-c4ccc(C)cc4)cc(-c4ccc(OC)cc4)n3)cc2)cc1` [Compound 9a, (ZE)-2-[4-(4-Methoxyphenyl)-6-p-tolylpyrimidin-2-ylthio]-N-{4-[3-(4 methoxyphenyl)acryloyl]phenyl}acetamide], the melting point lay in the range of 226 to 228 °C. Also, the half-maximal inhibitory concentration (IC50) with K-562 came to 18.4 ± 0.76 µM. Also, the IC50 with MCF-7 was determined as 3.56 ± 0.14 µM. Moreover, in the data set on HT-29, the half-inhibitory concentration (IC50) amounted to 2.2 ± 0.04 µM. Further, the 50% inhibitory concentration (IC50) on STAT3 [3] (MCF7 cells) was 243 ± 9.24 µM. In addition, the IC50 at STAT5a (MCF7 cells) came to 83.8 ± 3.28 µM. This molecule registered an IC50 in the data set “in vitro” of 17.1 µM.
